{"source": "patent US11898187B2", "about": "(priority 2017, dated 2024)", "data": [{"molecular_target": "N-glycosyltransferase from Actinobacillus pleuropneumoniae (Actinobacillus pleuropneumoniae serotype 5b, UniProt A3N2T3)", "sequence (A3N2T3 whole entry, the tested form may be a part)": "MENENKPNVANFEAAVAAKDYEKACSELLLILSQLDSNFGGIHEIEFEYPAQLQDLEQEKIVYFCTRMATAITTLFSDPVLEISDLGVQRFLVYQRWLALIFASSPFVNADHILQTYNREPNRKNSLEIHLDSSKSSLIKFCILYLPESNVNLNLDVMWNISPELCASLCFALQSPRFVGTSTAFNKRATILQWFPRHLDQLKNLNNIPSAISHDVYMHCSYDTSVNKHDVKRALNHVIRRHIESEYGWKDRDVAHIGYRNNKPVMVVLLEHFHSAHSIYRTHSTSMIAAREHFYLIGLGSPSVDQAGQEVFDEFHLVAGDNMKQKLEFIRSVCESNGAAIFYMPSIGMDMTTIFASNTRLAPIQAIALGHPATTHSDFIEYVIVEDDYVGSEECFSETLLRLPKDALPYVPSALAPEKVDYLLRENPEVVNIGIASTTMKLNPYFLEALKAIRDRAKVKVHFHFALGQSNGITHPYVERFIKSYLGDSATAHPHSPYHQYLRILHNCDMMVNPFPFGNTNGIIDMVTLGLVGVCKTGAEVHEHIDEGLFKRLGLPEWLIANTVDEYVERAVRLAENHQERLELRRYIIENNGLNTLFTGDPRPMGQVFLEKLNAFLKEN", "assay": "GlycoSCORES: peptide glycosylation by NGT, read by SAMDI-MS", "format": "biochemical", "settings": "50 μM peptide, 2.5 mM UDP-Glc, 0.5 μM purified NGT, 30° C., 3 h", "values": [{"compound": "QNATFC", "glucose modification of truncated GSDQNATF peptides": "most efficient glucose modification"}, {"compound": "CNAT", "glucose modification of truncated GSDQNATF peptides": "could be modified by NGT"}]}, {"molecular_target": "N-glycosyltransferase from Actinobacillus pleuropneumoniae (Actinobacillus pleuropneumoniae serotype 5b, UniProt A3N2T3)", "assay": "GlycoSCORES: peptide glycosylation by NGT, read by SAMDI-MS", "format": "biochemical", "settings": "4-mer peptides, fraction modified (0-1)", "values": [{"compound": "ANVS", "MO[…]": 0.9611}, {"compound": "ANST", "MO[…]": 0.7846}, {"compound": "NNRT", "MO[…]": 0.7671}, {"compound": "PNIS", "MO[…]": 0.8821}, {"compound": "HNHS", "MO[…]": 0.6747}, {"compound": "SNVS", "MO[…]": 0.971}, {"compound": "SNST", "MO[…]": 0.5156}, {"compound": "WNIS", "MO[…]": 0.746}, {"compound": "ANRT", "MO[…]": 0.8206}, {"compound": "SNHS", "MO[…]": 0.5937}, {"compound": "INVT", "MO[…]": 0.6893}, {"compound": "TNST", "MO[…]": 0.6424}, {"compound": "MNHT", "MO[…]": 0.855}, {"compound": "ANLT", "MO[…]": 0.6957}, {"compound": "MNVT", "MO[…]": 0.8374}, {"compound": "PNLT", "MO[…]": 0.8254}, {"compound": "NNHS", "MO[…]": 0.6848}, {"compound": "GNYT", "MO[…]": 0.5195}, {"compound": "ANVT", "MO[…]": 0.9844}, {"compound": "ENVT", "MO[…]": 0.8903}, {"compound": "MNIS", "MO[…]": 0.5286}, {"compound": "PNVS", "MO[…]": 0.9374}, {"compound": "TNAT", "MO[…]": 0.7761}, {"compound": "PNHS", "MO[…]": 0.6988}, {"compound": "HNRT", "MO[…]": 0.6962}, {"compound": "PNST", "MO[…]": 0.8271}, {"compound": "SNIT", "MO[…]": 0.7453}, {"compound": "ANAT", "MO[…]": 0.9101}, {"compound": "MNIT", "MO[…]": 0.7393}, {"compound": "GNVS", "MO[…]": 0.6117}, {"compound": "TNHT", "MO[…]": 0.8444}, {"compound": "DNHT", "MO[…]": 0.7287}, {"compound": "VNVT", "MO[…]": 0.8081}, {"compound": "ANMS", "MO[…]": 0.5336}, {"compound": "ANYS", "MO[…]": 0.6975}, {"compound": "WNRT", "MO[…]": 0.6933}, {"compound": "PNVT", "MO[…]": 0.9741}, {"compound": "ENHT", "MO[…]": 0.7656}, {"compound": "MNHS", "MO[…]": 0.6816}, {"compound": "SNHT", "MO[…]": 0.906}, {"compound": "DNVT", "MO[…]": 0.5073}, {"compound": "VNIT", "MO[…]": 0.6873}, {"compound": "ANFT", "MO[…]": 0.8633}, {"compound": "SNRT", "MO[…]": 0.6821}, {"compound": "GNVT", "MO[…]": 0.8843}, {"compound": "ENRT", "MO[…]": 0.7271}, {"compound": "NNAT", "MO[…]": 0.7664}, {"compound": "MNAT", "MO[…]": 0.7903}, {"compound": "ENST", "MO[…]": 0.6042}, {"compound": "LNVT", "MO[…]": 0.6724}, {"compound": "GNHT", "MO[…]": 0.7856}, {"compound": "GNWS", "MO[…]": 0.72}, {"compound": "WNAT", "MO[…]": 0.8599}, {"compound": "HNAT", "MO[…]": 0.7427}, {"compound": "TNVS", "MO[…]": 0.8695}, {"compound": "PNMT", "MO[…]": 0.8399}, {"compound": "GNWT", "MO[…]": 0.9409}, {"compound": "MNTT", "MO[…]": 0.5502}, {"compound": "NNHT", "MO[…]": 0.8624}, {"compound": "ENVS", "MO[…]": 0.6584}, {"compound": "ANYT", "MO[…]": 0.91}, {"compound": "MNRT", "MO[…]": 0.6724}, {"compound": "PNRT", "MO[…]": 0.8662}, {"compound": "WNIT", "MO[…]": 0.9275}, {"compound": "LNIT", "MO[…]": 0.5288}, {"compound": "TNVT", "MO[…]": 0.9096}, {"compound": "PNYT", "MO[…]": 0.8963}, {"compound": "ANHS", "MO[…]": 0.6918}, {"compound": "SNYT", "MO[…]": 0.6177}, {"compound": "PNYS", "MO[…]": 0.6762}, {"compound": "NNVS", "MO[…]": 0.7147}, {"compound": "MNMT", "MO[…]": 0.5547}, {"compound": "HNVS", "MO[…]": 0.9185}, {"compound": "PNTT", "MO[…]": 0.8532}, {"compound": "MNVS", "MO[…]": 0.9118}, {"compound": "SNVT", "MO[…]": 0.9488}, {"compound": "PNFT", "MO[…]": 0.8402}, {"compound": "VNAT", "MO[…]": 0.6982}, {"compound": "WNHT", "MO[…]": 0.8335}, {"compound": "SNAT", "MO[…]": 0.8383}, {"compound": "PNMS", "MO[…]": 0.636}, {"compound": "TNHS", "MO[…]": 0.5091}, {"compound": "QNVT", "MO[…]": 0.5056}, {"compound": "PNAT", "MO[…]": 0.8919}, {"compound": "SNTT", "MO[…]": 0.5496}, {"compound": "HNIT", "MO[…]": 0.8411}, {"compound": "ANIS", "MO[…]": 0.8694}, {"compound": "HNIS", "MO[…]": 0.704}, {"compound": "PNIT", "MO[…]": 0.9358}, {"compound": "ANTT", "MO[…]": 0.7872}]}, {"molecular_target": "N-glycosyltransferase from Actinobacillus pleuropneumoniae (Actinobacillus pleuropneumoniae serotype 5b, UniProt A3N2T3)", "assay": "GlycoSCORES: peptide glycosylation by NGT, read by SAMDI-MS", "format": "biochemical", "settings": "6-mer sequences in GlycoSCORES peptide screens; 50 μM peptide, 2.5 mM UDP-Glc, 0.025 μM NGT for 1 h", "units": {"glycosylation / modification efficiency": "%"}, "values": [{"compound": "FANATT", "glycosylation / modification efficiency": "~75"}, {"compound": "YANATS", "glycosylation / modification efficiency": "~36"}]}, {"molecular_target": "N-glycosyltransferase from Actinobacillus pleuropneumoniae (Actinobacillus pleuropneumoniae serotype 5b, UniProt A3N2T3)", "assay": "GlycoSCORES: peptide glycosylation by NGT, read by SAMDI-MS", "format": "biochemical", "settings": "CFPS NGT, 50 μM peptide, 2.5 mM UDP-Glc, 30° C.", "values": [{"compound": "GGNWTT", "modification by NGT in GlycoSCORES peptide screens": "more efficiently glycosylated than any previously studied"}, {"compound": "NHNETD", "modification by NGT in GlycoSCORES peptide screens": "no detectable modification"}, {"compound": "GNWTRC", "modification by NGT in GlycoSCORES peptide screens": "among the most efficiently glycosylated sequences"}, {"compound": "YANATT", "modification by NGT in GlycoSCORES peptide screens": "efficiently modified"}]}, {"molecular_target": "T1, NGT (Actinobacillus pleuropneumoniae serotype 5b, UniProt A3N2T3)", "T1 sequence (A3N2T3 whole entry)": "as the sequence (A3N2T3 whole entry, the tested form may be a part) above", "assay": "not given", "format": "biochemical", "settings": "5 μM Im7 variant, 0.1 μM NGT, 2.5 mM UDP-Glc, 2.5 h, 30° C.", "values": [{"compound": "GGNWTT", "glycosylation of Im7 variant": "most efficient modification within the Im7 protein"}]}, {"molecular_target": "T1, NGT", "assay": "not given", "format": "cell-based", "settings": "BL21(DE3) E. coli; Fc induced 2 h, then NGT 30 min", "values": [{"compound": "GGNWTT", "glycosylation of Fc variant in E. coli cytoplasm": "most efficient glycosylation"}]}, {"molecular_target": "T1, NGT", "assay": "not given", "format": "cell-based", "settings": "GlycTag at Asn1366; HMW1ct induced 1 h, then NGT 2 h", "values": [{"compound": "GGNWTT", "modification of HMW1ct variant in E. coli cytoplasm": "highest modification"}]}, {"molecular_target": "T1, NGT", "assay": "not given", "format": "biochemical", "settings": "50 μM peptide, 1 mM sugar donor, purified NGT, 30° C.", "values": [{"compound": "O=c1ccn([C@@H]2O[C@H](COP(=O)(O)OP(=O)(O)O[C@H]3OC[C@@H](O)[C@H](O)[C@H]3O)[C@@H](O)[C@H]2O)c(=O)[nH]1", "note": "[UDP-Xyl, UDP-xylose]", "efficiency of sugar transfer by NGT": "much lower efficiencies"}]}]}
